Measured values from patent US11981658B2, “Substituted aminopyridine compounds as EGFR inhibitors” (YUHAN CORPORATION, priority 2021, dated 2024).
Where two headings read alike, the source gives them in different places.

Assays:
EGFR Del19/T790M/C797S = EGFR Del19/T790M/C797S (Homo sapiens, UniProt P00533, C797S/DEL746-750/T790M); assay: Biochemical EGFR kinase inhibition assay (Lance Ultra TR-FRET), triple mutant del19/T790M/C797S
Summary of the method: (§1)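 In this biochemical assay, phosphorylation after a one-hour room-temperature reaction was detected with europium-labelled anti-phosphopeptide antibody at 2 nM final concentration.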

EGFR L858R/T790M/C797S = EGFR L858R/T790M/C797S (Homo sapiens, UniProt P00533, C797S/L858R/T790M); assay: Biochemical EGFR kinase inhibition assay (Lance Ultra TR-FRET), triple mutant L858R/T790M/C797S
Summary of the method: as §1

EGFR Del19/C797S = EGFR Del19/C797S (Homo sapiens, UniProt P00533, C797S/DEL746-750); assay: Biochemical EGFR kinase inhibition assay (Lance Ultra TR-FRET), double mutant del19/C797S
Summary of the method: as §1

EGFR L858R/C797S = EGFR L858R/C797S (Homo sapiens, UniProt P00533, C797S/L858R); assay: Biochemical EGFR kinase inhibition assay (Lance Ultra TR-FRET), double mutant L858R/C797S
Summary of the method: as §1

EGFR wildtype (WT) = EGFR wildtype (WT) (Homo sapiens, UniProt P00533); assay: Biochemical EGFR kinase inhibition assay (Lance Ultra TR-FRET), wildtype
Summary of the method: as §1

[1] = IC50 Del19/T790M/C797S (nM), 100 μM ATP
[2] = Km ATP, read-out: IC50 Del19/T790M/C797S (nM), Km ATP
[3] = IC50 L858R/T790M/C797S (nM), 100 μM ATP
[4] = Km ATP, read-out: IC50 L858R/T790M/C797S (nM), Km ATP
[5] = IC50 Del19/C797S (nM), 100 μM ATP
[6] = Km ATP, read-out: IC50 Del19/C797S (nM), Km ATP
[7] = IC50 L858R/C797S (nM), 100 μM ATP
[8] = Km ATP, read-out: IC50 L858R/C797S (nM), Km ATP
[9] = Km ATP, read-out: IC50 WT (nM), Km ATP
[10] = Km ATP, read-out: IC50 Del19/T790M/C797S (nM) Km ATP
[11] = Km ATP, read-out: IC50 L858R/T790M/C797S (nM) Km ATP
[12] = Km ATP, read-out: IC50 Del19/C797S (nM) Km ATP
[13] = Km ATP, read-out: IC50 L858R/C797S (nM) Km ATP
[14] = Km ATP, read-out: IC50 WT (nM) Km ATP
[15] = ATP at Km, read-out: IC50 Del19/T790M/C797S (nM), Km ATP
[16] = ATP at Km, read-out: IC50 L858R/T790M/C797S (nM), Km ATP
[17] = ATP at Km, read-out: IC50 Del19/C797S (nM), Km ATP
[18] = ATP at Km, read-out: IC50 L858R/C797S (nM), Km ATP
[19] = ATP at Km, read-out: IC50 WT (nM), Km ATP

Sequence of EGFR L858R/T790M/C797S (P00533 25-1210 T790M/C797S/L858R): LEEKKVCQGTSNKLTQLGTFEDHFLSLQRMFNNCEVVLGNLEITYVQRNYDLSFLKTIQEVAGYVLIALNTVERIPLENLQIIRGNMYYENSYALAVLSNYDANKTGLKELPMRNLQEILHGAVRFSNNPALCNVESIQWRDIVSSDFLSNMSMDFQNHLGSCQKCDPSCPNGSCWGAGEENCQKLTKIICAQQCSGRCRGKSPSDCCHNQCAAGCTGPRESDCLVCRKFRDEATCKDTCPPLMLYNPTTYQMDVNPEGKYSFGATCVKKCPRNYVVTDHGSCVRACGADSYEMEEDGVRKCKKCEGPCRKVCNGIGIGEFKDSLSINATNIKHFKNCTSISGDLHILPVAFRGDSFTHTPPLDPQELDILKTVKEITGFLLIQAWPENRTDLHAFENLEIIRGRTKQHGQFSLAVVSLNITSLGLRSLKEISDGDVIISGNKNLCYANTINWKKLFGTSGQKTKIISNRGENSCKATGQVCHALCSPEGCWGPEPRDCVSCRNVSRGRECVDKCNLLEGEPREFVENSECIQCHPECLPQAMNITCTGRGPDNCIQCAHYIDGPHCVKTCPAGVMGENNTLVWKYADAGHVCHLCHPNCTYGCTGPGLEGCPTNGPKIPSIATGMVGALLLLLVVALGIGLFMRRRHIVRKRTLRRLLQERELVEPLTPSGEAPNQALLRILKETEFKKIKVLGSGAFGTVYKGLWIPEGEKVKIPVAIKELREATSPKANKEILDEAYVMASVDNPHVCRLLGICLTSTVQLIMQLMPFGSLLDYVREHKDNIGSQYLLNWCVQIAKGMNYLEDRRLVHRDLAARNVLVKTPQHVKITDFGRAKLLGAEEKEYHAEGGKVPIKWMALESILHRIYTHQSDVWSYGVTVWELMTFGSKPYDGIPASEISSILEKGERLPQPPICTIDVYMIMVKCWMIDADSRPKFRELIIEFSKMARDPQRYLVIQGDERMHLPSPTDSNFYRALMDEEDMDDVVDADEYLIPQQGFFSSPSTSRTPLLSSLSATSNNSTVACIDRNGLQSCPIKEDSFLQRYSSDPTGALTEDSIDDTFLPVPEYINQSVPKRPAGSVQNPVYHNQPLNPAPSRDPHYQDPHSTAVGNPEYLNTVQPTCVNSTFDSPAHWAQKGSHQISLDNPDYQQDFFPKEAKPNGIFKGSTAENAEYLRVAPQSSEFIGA
Sequence of EGFR Del19/T790M/C797S (P00533 with tags, fused parts or gaps DEL746-750/T790M/C797S): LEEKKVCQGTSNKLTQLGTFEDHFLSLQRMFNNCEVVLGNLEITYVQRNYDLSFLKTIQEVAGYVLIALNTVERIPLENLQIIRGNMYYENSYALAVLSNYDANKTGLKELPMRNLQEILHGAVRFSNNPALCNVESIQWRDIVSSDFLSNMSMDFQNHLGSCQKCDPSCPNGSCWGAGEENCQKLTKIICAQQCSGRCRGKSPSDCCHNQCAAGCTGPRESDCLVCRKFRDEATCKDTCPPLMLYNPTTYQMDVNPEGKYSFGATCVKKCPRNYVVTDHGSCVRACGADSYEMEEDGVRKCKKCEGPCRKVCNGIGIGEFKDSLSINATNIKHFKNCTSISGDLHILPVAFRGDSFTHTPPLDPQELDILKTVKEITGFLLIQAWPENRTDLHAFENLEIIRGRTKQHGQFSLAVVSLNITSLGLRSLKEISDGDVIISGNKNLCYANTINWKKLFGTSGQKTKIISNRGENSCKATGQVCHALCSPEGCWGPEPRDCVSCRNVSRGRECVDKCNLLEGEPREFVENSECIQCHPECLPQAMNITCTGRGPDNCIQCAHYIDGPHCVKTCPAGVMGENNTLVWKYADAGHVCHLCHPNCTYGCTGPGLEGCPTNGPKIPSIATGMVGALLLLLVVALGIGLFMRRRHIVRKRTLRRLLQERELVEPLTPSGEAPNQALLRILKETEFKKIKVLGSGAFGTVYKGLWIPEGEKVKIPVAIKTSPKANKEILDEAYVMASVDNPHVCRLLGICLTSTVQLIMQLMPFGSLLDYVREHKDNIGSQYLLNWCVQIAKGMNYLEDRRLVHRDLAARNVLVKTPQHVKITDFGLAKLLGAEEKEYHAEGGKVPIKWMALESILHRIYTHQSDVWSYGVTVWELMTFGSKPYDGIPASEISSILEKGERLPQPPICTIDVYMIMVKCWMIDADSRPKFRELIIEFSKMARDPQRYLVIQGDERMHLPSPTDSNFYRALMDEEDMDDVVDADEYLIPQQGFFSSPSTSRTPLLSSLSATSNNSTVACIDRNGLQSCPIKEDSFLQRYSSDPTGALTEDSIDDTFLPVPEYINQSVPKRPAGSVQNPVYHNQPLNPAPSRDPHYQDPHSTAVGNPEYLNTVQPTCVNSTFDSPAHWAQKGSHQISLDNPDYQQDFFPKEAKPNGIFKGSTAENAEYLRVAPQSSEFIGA
Sequence of EGFR wildtype (WT) (P00533 25-1210): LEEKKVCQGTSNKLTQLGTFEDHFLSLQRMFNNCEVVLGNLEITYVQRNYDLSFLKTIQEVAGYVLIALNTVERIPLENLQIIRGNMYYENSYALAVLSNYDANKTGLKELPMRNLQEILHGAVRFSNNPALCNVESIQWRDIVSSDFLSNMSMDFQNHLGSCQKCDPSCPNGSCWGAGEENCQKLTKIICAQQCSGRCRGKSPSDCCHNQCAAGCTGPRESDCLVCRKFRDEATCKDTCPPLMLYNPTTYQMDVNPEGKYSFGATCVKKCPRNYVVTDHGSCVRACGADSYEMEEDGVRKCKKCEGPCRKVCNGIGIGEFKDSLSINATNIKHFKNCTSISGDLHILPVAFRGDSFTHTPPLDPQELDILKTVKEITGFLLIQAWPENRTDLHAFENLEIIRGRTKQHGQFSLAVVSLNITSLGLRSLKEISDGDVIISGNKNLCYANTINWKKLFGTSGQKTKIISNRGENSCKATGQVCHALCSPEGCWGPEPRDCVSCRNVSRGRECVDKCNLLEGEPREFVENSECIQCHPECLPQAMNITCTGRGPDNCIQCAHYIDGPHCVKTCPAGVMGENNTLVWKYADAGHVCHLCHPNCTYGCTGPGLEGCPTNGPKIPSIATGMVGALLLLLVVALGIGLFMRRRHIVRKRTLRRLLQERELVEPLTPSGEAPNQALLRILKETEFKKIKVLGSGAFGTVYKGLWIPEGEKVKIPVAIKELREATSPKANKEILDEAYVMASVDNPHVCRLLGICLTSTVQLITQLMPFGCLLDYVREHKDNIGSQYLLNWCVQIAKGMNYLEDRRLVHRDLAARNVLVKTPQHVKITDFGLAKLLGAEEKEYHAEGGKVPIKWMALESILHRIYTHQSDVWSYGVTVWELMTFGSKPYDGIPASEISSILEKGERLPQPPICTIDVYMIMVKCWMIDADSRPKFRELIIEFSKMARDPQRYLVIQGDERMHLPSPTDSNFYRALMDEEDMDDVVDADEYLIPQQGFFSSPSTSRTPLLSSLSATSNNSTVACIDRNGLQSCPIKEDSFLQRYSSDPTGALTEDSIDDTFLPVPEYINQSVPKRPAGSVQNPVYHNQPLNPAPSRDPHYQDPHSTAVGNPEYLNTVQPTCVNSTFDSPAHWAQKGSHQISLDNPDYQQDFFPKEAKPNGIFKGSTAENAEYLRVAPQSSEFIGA
Sequence of EGFR L858R/C797S (P00533 25-1210 C797S/L858R): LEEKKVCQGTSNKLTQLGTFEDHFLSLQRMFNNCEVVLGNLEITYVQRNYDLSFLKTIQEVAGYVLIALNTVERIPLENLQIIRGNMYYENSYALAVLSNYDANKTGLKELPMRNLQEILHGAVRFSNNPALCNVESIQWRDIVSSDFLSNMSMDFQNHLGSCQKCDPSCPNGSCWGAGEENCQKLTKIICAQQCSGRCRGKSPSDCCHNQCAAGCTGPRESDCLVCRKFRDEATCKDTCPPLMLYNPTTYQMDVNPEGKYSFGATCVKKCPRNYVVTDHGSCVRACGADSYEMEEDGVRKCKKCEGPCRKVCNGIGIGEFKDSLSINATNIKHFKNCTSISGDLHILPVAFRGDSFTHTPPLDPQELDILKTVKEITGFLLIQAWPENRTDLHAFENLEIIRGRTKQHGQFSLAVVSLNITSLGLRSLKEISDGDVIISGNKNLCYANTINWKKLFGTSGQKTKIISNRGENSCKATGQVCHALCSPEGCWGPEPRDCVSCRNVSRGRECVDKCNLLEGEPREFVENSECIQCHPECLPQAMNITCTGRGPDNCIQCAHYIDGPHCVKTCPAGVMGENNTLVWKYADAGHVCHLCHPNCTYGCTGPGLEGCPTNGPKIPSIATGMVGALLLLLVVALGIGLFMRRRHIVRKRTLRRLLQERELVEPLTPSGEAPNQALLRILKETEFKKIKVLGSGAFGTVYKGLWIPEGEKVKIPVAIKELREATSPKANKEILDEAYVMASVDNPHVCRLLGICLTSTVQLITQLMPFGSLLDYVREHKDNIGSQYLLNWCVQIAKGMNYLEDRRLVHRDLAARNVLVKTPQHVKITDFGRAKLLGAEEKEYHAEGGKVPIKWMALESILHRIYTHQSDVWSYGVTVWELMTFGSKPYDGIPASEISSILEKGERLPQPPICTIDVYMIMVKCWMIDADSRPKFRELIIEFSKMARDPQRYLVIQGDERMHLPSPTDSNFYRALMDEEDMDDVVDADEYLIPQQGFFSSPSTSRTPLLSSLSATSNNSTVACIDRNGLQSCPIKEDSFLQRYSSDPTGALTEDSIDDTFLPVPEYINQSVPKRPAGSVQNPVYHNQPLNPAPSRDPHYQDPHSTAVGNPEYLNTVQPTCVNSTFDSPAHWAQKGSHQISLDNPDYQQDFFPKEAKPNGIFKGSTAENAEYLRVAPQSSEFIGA

IC50 (EGFR Del19/T790M/C797S; [1])	IC50 (EGFR Del19/T790M/C797S; [2])	IC50 (EGFR L858R/T790M/C797S; [3])	IC50 (EGFR L858R/T790M/C797S; [4])	IC50 (EGFR Del19/C797S; [5])	IC50 (EGFR Del19/C797S; [6])	IC50 (EGFR L858R/C797S; [7])	IC50 (EGFR L858R/C797S; [8])	IC50 (EGFR wildtype (WT); IC50 WT (nM), 100 μM ATP)	IC50 (EGFR wildtype (WT); [9])	IC50 (EGFR Del19/T790M/C797S; [10])	IC50 (EGFR L858R/T790M/C797S; [11])	IC50 (EGFR Del19/C797S; [12])	IC50 (EGFR L858R/C797S; [13])	IC50 (EGFR wildtype (WT); [14])	IC50 (EGFR Del19/T790M/C797S; [15])	IC50 (EGFR L858R/T790M/C797S; [16])	IC50 (EGFR Del19/C797S; [17])	IC50 (EGFR L858R/C797S; [18])	IC50 (EGFR wildtype (WT); [19])	Compound
3.1 nM	2.5 nM	4 nM	0.9 nM	34.2 nM	21.4 nM	128 nM	42.4 nM	> 10000 nM	163 nM	–	–	–	–	–	–	–	–	–	–	O=S(=O)(C1CC1)n1cc(-c2nccc(Nc3cc(N[C@H]4CCC[C@H](O)C4)c(C#Cc4cnn(CC(F)(F)F)c4)cn3)n2)cn1 [Example 341, (1S,3S)-3-((2-((2-(1-(Cyclopropylsulfonyl)-1H-pyrazol-4-yl)pyrimidin-4-yl)amino)-5-((1-(2,2,2-trifluoroethyl)-1H-pyrazol-4-yl)ethynyl)pyridin-4-yl)amino)cyclohexan-1-ol]
7.3 nM	–	35.9 nM	–	59.8 nM	–	979 nM	–	> 10000 nM	–	–	–	–	–	–	–	–	–	–	–	O=C(N1CCC(C#Cc2cnc(Nc3ccnc(-c4cnn(S(=O)(=O)C5CC5)c4)n3)cc2NCC2CCC(CO)CC2)C1)C(F)(F)F (stereo not drawn) [Example 411, 1-(3-((6-((2-(1-(Cyclopropylsulfonyl)-1H-pyrazol-4-yl)pyrimidin-4-yl)amino)-4-((((1 r,4r)-4-(hydroxymethyl)cyclohexyl)methyl)amino)pyridin-3-yl)ethynyl)pyrrolidin-1-yl)-2,2,2-trifluoroethan-1-one]
0.6 nM	–	1.8 nM	–	3.5 nM	–	22.8 nM	–	> 10000 nM	–	–	–	–	–	–	–	–	–	–	–	O=S(=O)(C1CC1)n1cc(-c2nccc(Nc3cc(N4CCC(O)CC4)c(C#Cc4cnn(C5CC5(F)F)c4)cn3)n2)cn1 (stereo not drawn) [Example 82, 1-(2-((2-(1-(Cyclopropylsulfonyl)-1H-pyrazol-4-yl)pyrimidin-4-yl)amino)-5-((1-(2,2-difluorocyclopropyl)-1H-pyrazol-4-yl)ethynyl)pyridin-4-yl)piperidin-4-ol]
0.4 nM	–	0.9 nM	–	2.3 nM	–	121 nM	–	> 10000 nM	–	0.4 nM	0.1 nM	1.5 nM	5.6 nM	40.5 nM	–	–	–	–	–	CN(C)C(C)(C)CNC1CCN(c2cc(Nc3ccnc(-c4cnn(S(=O)(=O)C5CC5)c4)n3)ncc2C#Cc2cnn(C)c2)CC1 [Example 134, N^4-(1-(2-((2-(1-(Cyclopropylsulfonyl)-1H-pyrazol-4-yl)pyrimidin-4-yl)amino)-5-((1-methyl-1H-pyrazol-4-yl)ethynyl)pyridin-4-yl)piperidin-4-yl)-N^2,N^2,2-trimethylpropane-1,2-diamine]
1.2 nM	–	2.4 nM	–	23.1 nM	–	83.4 nM	–	> 10000 nM	–	–	–	–	–	–	–	–	–	–	–	Cn1cc(C#Cc2cnc(Nc3ccnc(-c4cnn(S(=O)(=O)C5CC5)c4)n3)cc2N2CCC(NS(C)(=O)=O)CC2)cn1 [Example 63, N-(1-(2-((2-(1-(Cyclopropylsulfonyl)-1H-pyrazol-4-yl)pyrimidin-4-yl)amino)-5-((1-methyl-1H-pyrazol-4-yl)ethynyl)pyridin-4-yl)piperidin-4-yl)methanesulfonamide]
1 nM	–	1.4 nM	–	3 nM	–	9.1 nM	–	> 10000 nM	–	0.9 nM	0.7 nM	2.3 nM	1.6 nM	10.4 nM	–	–	–	–	–	CC(=O)N1CCC(n2cc(C#Cc3cnc(Nc4ccnc(-c5cnn(S(=O)(=O)C6CC6)c5)n4)cc3N[C@H]3CC[C@@H](O)CC3)cn2)CC1 [Example 109, 1-(4-(4-((6-((2-(1-(Cyclopropylsulfonyl)-1H-pyrazol-4-yl)pyrimidin-4-yl)amino)-4-(((1 s, 4s)-4-hydroxycyclohexyl)amino)pyridin-3-yl)ethynyl)-1H-pyrazol-1-yl)piperidin-1-yl)ethan-1-one]
2.9 nM	–	11.4 nM	–	46.9 nM	–	213 nM	–	> 10000 nM	–	–	–	–	–	–	–	–	–	–	–	O=S(=O)(C1CC1)n1cc(-c2nccc(Nc3cc(N4CCC(O)CC4)c(C#Cc4ccc(N5CCOCC5)nc4)cn3)n2)cn1 [Example 215, 1-(2-((2-(1-(Cyclopropylsulfonyl)-1H-pyrazol-4-yl)pyrimidin-4-yl)amino)-5-((6-morpholinopyridin-3-yl)ethynyl)pyridin-4-yl)piperidin-4-ol]
7.4 nM	–	14.9 nM	–	22.5 nM	–	383 nM	–	> 10000 nM	–	–	–	–	–	–	4.5 nM	3.6 nM	8.9 nM	36.7 nM	615 nM	CC1(CO)CCN(c2cc(Nc3ccnc(-c4cnn(S(=O)(=O)C5CC5)c4)n3)ncc2C#Cc2nc(C(F)(F)F)cs2)CC1 [Example 291, (1-(2-((2-(1-(Cyclopropylsulfonyl)-1H-pyrazol-4-yl)pyrimidin-4-yl)amino)-5-((4-(trifluoromethyl)thiazol-2-yl)ethynyl)pyridin-4-yl)-4-methylpiperidin-4-yl)methanol]
1.7 nM	2.1 nM	3.7 nM	1.3 nM	24.5 nM	12.5 nM	62.7 nM	11.1 nM	> 10000 nM	122 nM	–	–	–	–	–	–	–	–	–	–	O=S(=O)(C1CC1)n1cc(-c2nccc(Nc3cc(N4CCC[C@H](O)C4)c(C#Cc4cnn(C(F)(F)F)c4)cn3)n2)cn1 [Example 439, (S)-1-(2-((2-(1-(Cyclopropylsulfonyl)-1H-pyrazol-4-yl)pyrimidin-4-yl)amino)-5-((1-(trifluoromethyl)-1H-pyrazol-4-yl)ethynyl)pyridin-4-yl)piperidin-3-ol]
8.2 nM	–	39.2 nM	–	338 nM	–	604 nM	–	> 10000 nM	–	–	–	–	–	–	–	–	–	–	–	Cn1cc(C#Cc2cnc(Nc3ccnc(-c4cnn(S(=O)(=O)C5CC5)c4)n3)cc2N2CCC(C(F)(F)F)CC2)cn1 [Example 65, 2-(1-(Cyclopropylsulfonyl)-1H-pyrazol-4-yl)-N-(5-((1-methyl-1H-pyrazol-4-yl)ethynyl)-4-(4-(trifluoromethyl)piperidin-1-yl)pyridin-2-yl)pyrimidin-4-amine]
0.5 nM	–	0.8 nM	–	4.4 nM	–	23.8 nM	–	> 10000 nM	–	–	–	–	–	–	–	–	–	–	–	Cn1cc(C#Cc2cnc(Nc3ccnc(-c4cnn(S(=O)(=O)C5CC5)c4)n3)cc2N2CCC(NCCF)CC2)cn1 [Example 129, 2-(1-(Cyclopropylsulfonyl)-1H-pyrazol-4-yl)-N-(4-(4-((2-fluoroethyl)amino)piperidin-1-yl)-5-((1-methyl-1H-pyrazol-4-yl)ethynyl)pyridin-2-yl)pyrimidin-4-amine]
0.3 nM	0.3 nM	0.6 nM	0.3 nM	2.4 nM	1.3 nM	75.1 nM	4.1 nM	9810 nM	10.4 nM	–	–	–	–	–	–	–	–	–	–	O=S(=O)(C1CC1)n1cc(-c2nccc(Nc3cc(NC4CCC(CO)CC4)c(C#CC4CCCO4)cn3)n2)cn1 (stereo not drawn) [Example 374, ((1s,4s)-4-((2-((2-(1-(Cyclopropylsulfonyl)-1H-pyrazol-4-yl)pyrimidin-4-yl)amino)-5-((tetrahydrofuran-2-yl)ethynyl)pyridin-4-yl)amino)cyclohexyl)methanol]
2.1 nM	–	3 nM	–	25.5 nM	–	100 nM	–	> 10000 nM	–	–	–	–	–	–	–	–	–	–	–	CC(C)(O)C1CN(c2cc(Nc3ccnc(-c4cnn(S(=O)(=O)C5CC5)c4)n3)ncc2C#Cc2cnn(CCF)c2)C1 [Example 36, 2-(1-(2-((2-(1-(Cyclopropylsulfonyl)-1H-pyrazol-4-yl)pyrimidin-4-yl)amino)-5-((1-(2-fluoroethyl)-1H-pyrazol-4-yl)ethynyl)pyridin-4-yl)azetidin-3-yl)propan-2-ol]
2.2 nM	–	4.2 nM	–	10.4 nM	–	146 nM	–	> 10000 nM	–	–	–	–	–	–	4.9 nM	2.4 nM	12.2 nM	38.7 nM	101 nM	CC1(CO)CCN(c2cc(Nc3ccnc(-c4cnn(S(=O)(=O)C5CC5)c4)n3)ncc2C#Cc2cnc(C(F)(F)F)s2)CC1 [Example 292, (1-(2-((2-(1-(Cyclopropylsulfonyl)-1H-pyrazol-4-yl)pyrimidin-4-yl)amino)-5-((2-(trifluoromethyl)thiazol-5-yl)ethynyl)pyridin-4-yl)-4-methylpiperidin-4-yl)methanol]
